Assay results reported in patent publication US20260060947A1 (INSTITUT PASTEUR DE MONTEVIDEO, priority 2019, published 2026).
“Also recorded” adds a separate entry of the source.

Experiments:
[1] = test system: NF-κB; assay: TNFα-induced NF-κB activation in HT-29 NF-κB reporter cell line (flow cytometry); format: cell-based; details: BANA 10, 20, 30 μM, BA 30 μM, DMF 30 μM before TNFα
Method: The effects of BANA on LPS- or TNFα-induced NF-κB activation were also assayed in cell cultures of BV2 microglial cell line and primary adult microglia isolated from symptomatic SOD1^G93A rats, and HT-29 NF-κB reporter cell line, respectively.

[2] = LC50 in cell culture of HT-29; format: cell-based; details: human, HT-29 cells; HT-29 cell culture
[3] = test system: SOD1^G93A rats; assay: Neuromuscular junction innervation analysis in whole mounted EDL muscle; format: in vivo, rat; details: 100 mg/kg/day post-paralysis; vs vehicle
Method: Extensor digitorium longus (EDL) muscles from the NonTg and SOD1^G93A hind limbs were dissected. Then, tissues were blocked for 2 h at room temperature (BSA 5% v/v, Triton X-100 0.8% v/v in PBS pH=7.4), incubated with primary antibodies or fluorescent probes at 4° C. overnight: axon and post-synaptic plates were carried out using 1:1000 rabbit anti-heavy chain neurofilament-Alexa Fluor 555 (Millipore, #MAB5256A5) and fluorescently labeled a-bungarotoxin-FITC [αBTX, (Thermo Fisher Scientific, B13422)], axon presynaptic terminals were labeled with 1:300 rabbit anti-synaptophysin-Alexa Fluor 555 (Abcam, #ab206870). After washing 4 times with PBS, whole-mount muscles were mounted using DPX. Structural changes of the neuromuscular junction were scored using maximum-intensity projections of images acquired from whole-mounted muscles. Neuromuscular junction innervation analysis was performed taking into consideration those postsynaptic motor endplates occupied by a presynaptic axon terminal, where full innervation was defined as at least 80% of overlapping between pre- and postsynaptic. An average of 100 neuromuscular junctions per animal was analyzed using the ImageJ software.

[4] = Electrophilic reactivity: reaction between BANA and β-mercaptoethanol followed by UV-Visible spectra; format: physicochemical; details: BANA 30 μM, β-ME 300 μM, phosphate buffer 20 mM pH=7.4, scans each min up to 15 min
Method: Most electrophilic nitroalkene compounds exert their pharmacological activity via a Michael addition reaction with nucleophiles. To study the electrophilic properties of BANA, the reaction between -mercaptoethanol (BME) and BANA was studied spectrophotometrically.
The electrophilic reactivity of BANA compound was determined by analyzing the UV-Visible spectra of the reaction between BANA and β-Mercaptoethanol (β-ME). BANA (30 μM) was incubated with β-ME (300 μM) in Phosphate buffer (20 mM) pH=7.4, and scans were taken each min up to 15 min.

[5] = test system: NF-κB; assay: LPS-induced NF-κB-dependent gene expression in THP-1 cells (qPCR); format: cell-based, Human; details: 30 μM for 2 hs, then LPS 100 ng/mL
Method: The effect of BANA or BA over NF-κB-dependent gene expression was studied by qPCR using THP-1 cells. THP-1 cells were differentiated into macrophages and treated with BANA (30 μM) or BA (30 μM) for 2 hs, followed by stimulation with LPS (100 ng/mL, for 3-4 h).
TNFα, CCL2, IL6 and IL-1β expression was analyzed by RT-PCR. Real-time PCR analysis was conducted as follows: Total mRNA was extracted from THP-1 cells to quantify TNFα, IL-6 and MCP-1-fold change gene expression over control (β-actin) by qPCR assay. Purified RNA was transcripted to cDNA using Superscript II Reverse Transcriptase with Oligo (dT). The cDNA for real-time PCR was obtained with a Piko 24 Thermal Cycler (Thermo Scientific). mRNA expression analysis was calculated using the ddCt method with β-Actin as the house keeping gene. SYBR Green was used as DNA binding dye and the qRT-PCR was done in an Eco Illumina thermocycler. Human primers sequences were used for THP-1 cells: […]

[6] = LC50 in cell culture of SOD1^G93A adult microglia; format: cell-based; details: rat
[7] = test system: NF-kB; assay: NF-kB activation after sciatic nerve section in NF-kB-RE-Luc mice (in vivo luminescence); parameters: species or system mouse; details: oral 100 mg/kg/day day 0 to day 4, vs vehicle
Method: FIG. 17A: Scheme of the experimental design in which NF-kB-RE-Luc tg mice were treated with 100 mg/kg/day of BANA or vehicle starting immediately before sciatic nerve section (day 0) until day 4.
For NF-kB in vivo imaging studies, the NF-kB-RE-Luc random transgenic mouse model (Taconic, BALB/c-Tg(Rela-luc)31Xen) aged 6-8 weeks was used. These animals carry a transgene containing 6 NF-kB-responsive elements (RE) from the CMVα (immediate early) promoter placed upstream of a basal SV40 promoter, and a modified firefly luciferase cDNA (Promega pGL3). Animals were randomized divided into two groups and orally administrated with 100 mg/kg of BANA or Vehicle (phosphate buffer) starting immediately before sciatic nerve section in the right hindlimb and continuing for 4 days. At day 1, 2 and 4 post-surgery, differences in luciferase activity were compared between groups. To accomplish that, 150 mg/kg of the substrate D-luciferin (#K9918PE, XenoLight) dissolved in PBS, pH 7.4, was injected intraperitoneally to each mouse. […] Changes in NF-kB activity were quantified after comparing the differences of luminescence in the right hindlimb between groups, using ImageJ software.

[8] = test system: murine BV2 microglial cell line; assay: Cell viability / toxicity by sulforhodamine B assay; format: cell-based
Method: (§1) The murine BV2 microglial cell line was used to analyze the toxicity and anti-inflammatory effects of BANA. Baseline cell viability was established in murine microglia cell line BV2 by sulforhodamine B assay. Briefly, cells were plated in a 96-multiwell plate and incubated with different concentrations of BANA (5-110 μM) for 24 h. After media removal, cells were washed twice with PBS pH=7.4. Cells were fixed with TCA for 1 hour at 4° C. and then washed five times with distilled water. 50 μL of sulforhodamine B 0.4% m/v in 1% acetic acid was added to each well and incubated 30 minutes at room temperature. After staining, the plate was washed at least five times with 1% acetic acid. Once the plate was dry the protein-bound dye was dissolved in 10 mM Tris and the absorbance at 570 nm was read using a microplate spectrophotometer (FIG. 3A).

[9] = as above; format: cell-based; details: mouse, BV2 microglial cells; BV2 cell culture; read-out: LC50
Method: as §1

SMILES: O=C(O)c1ccc(/C=C/[N+](=O)[O-])cc1 [BANA, (E)-4-(2-nitrovinyl) benzoic acid]
- TNFα-induced NF-κB activation [1]: potently prevented
- CC50 [2]: 80 µM
- motor endplate denervation in the EDL muscle [3]: significantly reduced
- reaction with β-mercaptoethanol (UV-Visible absorbance) [4]: react with 3-ME, resulting in a decreased in absorbance
- levels of mRNA coding for TNFα, MCP-1 and IL-6 [5]: potently prevented; also recorded: abrogated
- CC50 [6]: 30 µM
- NF-kB luminescence in right hindlimb after sciatic nerve section [7]: significantly prevented
- IC50 ([8]; Mus musculus, BV-2, BV2 cells, BANA 5-110 μM, 24 h, sulforhodamine B): 51.7 µM
- toxicity to BV2 microglia ([8]; low micromolar concentrations): devoid of toxicity
- CC50 at 24 h [9]: 50 µM
